# Source: ChEMBL document CHEMBL1201862, “PubChem BioAssay data set” (2004)
#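 Tested at 5 concentrations; 48 h exposure; 96-well plates; endpoints linearly interpolated, else capped at highest concentration. At the GI50, growth is halved.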 Calls of active or inactive are those of the source. Cut-off read from the data, not from the text of the source: active = GI50 up to about 1.1 µM and inactive = higher.
# Columns and labels:
# Experiment in all cases: NCI tumour cell line growth inhibition, 48 h
# CCRF-CEM = system: CCRF-CEM
# NCI-H460 = system: NCI-H460
# OVCAR-5 = system: OVCAR-5
# KM-20L2 = system: KM-20L2
# DLD-1 = system: DLD-1
# SF-539 = system: SF-539
# U-251 = system: U-251
# HOP-62 = system: HOP-62
# SR = system: SR
# CAKI-1 = system: CAKI-1
# COLO 205 = system: COLO 205
# HCC 2998 = system: HCC 2998
# HCT-15 = system: HCT-15
# UO-31 = system: UO-31
# HL-60 = system: HL-60
# SN12C = system: SN12C
Structure (SMILES),GI50 (CCRF-CEM),GI50 (NCI-H460),GI50 (OVCAR-5),GI50 (KM-20L2),GI50 (DLD-1),GI50 (SF-539),GI50 (U-251),GI50 (HOP-62),GI50 (SR),GI50 (CAKI-1),GI50 (COLO 205),GI50 (HCC 2998),GI50 (HCT-15) [µM],GI50 (UO-31),GI50 (HL-60),GI50 (SN12C)
COC1=CC(=O)C2[C@H]3Cc4ccccc4[C@H]3C2(C)C1=O (some centres undefined),55.2 µM (inactive),> 100 µM (inactive),> 100 µM (inactive),77.3 µM (inactive),> 100 µM (inactive),> 100 µM (inactive),> 100 µM (inactive),> 100 µM (inactive),70.3 µM (inactive),> 100 µM (inactive),> 100 µM (inactive),> 100 µM (inactive),94.6,34.7 µM (inactive),,
CCc1cccc(C)c1NC(=O)C(=O)Cc1nc2ccccc2s1,> 100 µM (inactive),> 100 µM (inactive),,> 100 µM (inactive),> 100 µM (inactive),> 100 µM (inactive),> 100 µM (inactive),,> 100 µM (inactive),> 100 µM (inactive),> 100 µM (inactive),> 100 µM (inactive),,> 100 µM (inactive),> 100 µM (inactive),> 100 µM (inactive)
COC(=O)[C@@H]1c2[nH]c3ccccc3c2C[C@@H]2c3ccccc3NC(=O)[C@@H]21,> 77.6 µM (inactive),> 100 µM (inactive),> 100 µM (inactive),> 100 µM (inactive),> 100 µM (inactive),43.7 µM (inactive),15.4 µM (inactive),14.3 µM (inactive),,> 73.6 µM (inactive),> 82.2 µM (inactive),> 100 µM (inactive),> 100,> 100 µM (inactive),> 100 µM (inactive),> 78.3 µM (inactive)
COc1cc(C(=O)N[C@H]2CCc3cc(OC)c(OC)c(OC)c3-c3ccc(SC)c(=O)cc32)cc(OC)c1OC,0.00705 µM (active),0.00615 µM (active),0.0107 µM (active),0.00475 µM (active),0.00731 µM (active),0.00515 µM (active),0.0116 µM (active),0.0121 µM (active),0.0126 µM (active),,0.0342 µM (active),0.0113 µM (active),0.444,0.019 µM (active),0.00847 µM (active),0.0204 µM (active)
CN1C(=O)C(C)(C)NS1(=O)=O,> 100 µM (inactive),> 100 µM (inactive),> 100 µM (inactive),> 100 µM (inactive),> 100 µM (inactive),> 100 µM (inactive),> 100 µM (inactive),> 100 µM (inactive),,> 100 µM (inactive),> 100 µM (inactive),> 100 µM (inactive),> 100,> 100 µM (inactive),> 100 µM (inactive),> 100 µM (inactive)
CN(C)C(=S)/N=c1\ssc(=S)n1Cc1ccccn1,10.7 µM (inactive),2.93 µM (inactive),> 100 µM (inactive),1.94 µM (inactive),4.45 µM (inactive),4.49 µM (inactive),3.89 µM (inactive),10.6 µM (inactive),,6.93 µM (inactive),2.75 µM (inactive),4.92 µM (inactive),2.01,3.7 µM (inactive),3.19 µM (inactive),7.03 µM (inactive)
CN(Cc1ccccc1)C(=O)c1ccccc1C(=O)O,> 100 µM (inactive),> 100 µM (inactive),> 100 µM (inactive),> 100 µM (inactive),> 100 µM (inactive),> 100 µM (inactive),> 100 µM (inactive),,> 100 µM (inactive),> 100 µM (inactive),> 100 µM (inactive),> 100 µM (inactive),> 100,> 100 µM (inactive),> 100 µM (inactive),> 100 µM (inactive)
Cc1cc(N(CCC#N)CCC#N)ccc1/C=C(\NC(=O)/C=C/c1ccccc1)NC(=O)Nc1ccc(Cl)cc1,> 100 µM (inactive),> 100 µM (inactive),> 100 µM (inactive),5.37 µM (inactive),75 µM (inactive),26 µM (inactive),14.3 µM (inactive),,,19.2 µM (inactive),> 100 µM (inactive),58.7 µM (inactive),> 100,74.1 µM (inactive),37.5 µM (inactive),> 100 µM (inactive)
COc1ccc(C(=O)N/N=C/c2c(C)n(C)n(-c3ccccc3)c2=O)cc1,> 100 µM (inactive),> 100 µM (inactive),,> 100 µM (inactive),> 100 µM (inactive),> 100 µM (inactive),> 100 µM (inactive),> 100 µM (inactive),> 100 µM (inactive),,> 100 µM (inactive),> 100 µM (inactive),> 100,> 100 µM (inactive),> 100 µM (inactive),> 100 µM (inactive)
C=Nc1ccc([N+](=O)[O-])cc1,> 63.1 µM (inactive),> 59.4 µM (inactive),> 100 µM (inactive),> 100 µM (inactive),> 100 µM (inactive),> 100 µM (inactive),> 100 µM (inactive),,> 41.5 µM (inactive),> 100 µM (inactive),> 100 µM (inactive),> 100 µM (inactive),> 60.1,> 84.9 µM (inactive),> 62.7 µM (inactive),> 65.3 µM (inactive)
CC1=[N+]([O-])c2ccccc2C(=O)C1=O,25.9 µM (inactive),61 µM (inactive),> 100 µM (inactive),> 100 µM (inactive),> 100 µM (inactive),> 100 µM (inactive),99.8 µM (inactive),> 100 µM (inactive),,> 100 µM (inactive),> 100 µM (inactive),> 100 µM (inactive),56.4,> 100 µM (inactive),40.3 µM (inactive),> 100 µM (inactive)
O=C1/C=C(/c2ccc(O)cc2)[C@@H](O)Cc2ccc(O)cc2O1,,62.4 µM (inactive),> 100 µM (inactive),> 100 µM (inactive),> 100 µM (inactive),52.5 µM (inactive),> 100 µM (inactive),61.4 µM (inactive),56.1 µM (inactive),29.1 µM (inactive),> 100 µM (inactive),,> 100,85.3 µM (inactive),,85.9 µM (inactive)
O=C1CN(C(=O)c2ccccc2)Cc2[nH]c3ccccc3c21,> 100 µM (inactive),> 100 µM (inactive),> 100 µM (inactive),> 100 µM (inactive),> 100 µM (inactive),> 100 µM (inactive),> 100 µM (inactive),> 100 µM (inactive),> 100 µM (inactive),,> 100 µM (inactive),> 100 µM (inactive),> 100,> 100 µM (inactive),> 100 µM (inactive),> 100 µM (inactive)
CCCOc1ccc(/C=C\c2cc(OC)c(OC)c(OC)c2)cc1,> 100 µM (inactive),68.2 µM (inactive),10.1 µM (inactive),33 µM (inactive),87.7 µM (inactive),74.3 µM (inactive),68.9 µM (inactive),> 100 µM (inactive),,58.3 µM (inactive),39.2 µM (inactive),,43.6,33.2 µM (inactive),18.9 µM (inactive),65.3 µM (inactive)
NC(=O)COc1c(Br)cc(Br)cc1Br,> 100 µM (inactive),> 100 µM (inactive),> 100 µM (inactive),> 100 µM (inactive),> 100 µM (inactive),> 100 µM (inactive),> 100 µM (inactive),> 100 µM (inactive),> 100 µM (inactive),> 100 µM (inactive),> 100 µM (inactive),> 100 µM (inactive),> 100,> 100 µM (inactive),,> 100 µM (inactive)
COc1ccc2oc3c(OC)c(OC)c(OC)cc3c(=O)c2c1,> 100 µM (inactive),> 100 µM (inactive),> 100 µM (inactive),> 100 µM (inactive),> 100 µM (inactive),40.4 µM (inactive),71.6 µM (inactive),50.2 µM (inactive),,> 100 µM (inactive),> 100 µM (inactive),> 100 µM (inactive),> 100,> 100 µM (inactive),,> 100 µM (inactive)
C/C(N)=[N+](/C)[O-],23.4 µM (inactive),25.4 µM (inactive),> 100 µM (inactive),> 100 µM (inactive),46.6 µM (inactive),69.2 µM (inactive),> 100 µM (inactive),> 100 µM (inactive),23.8 µM (inactive),,17.2 µM (inactive),36.9 µM (inactive),19.9,> 100 µM (inactive),> 100 µM (inactive),92.9 µM (inactive)
C#CC1(O)CCC2C3CCc4cc(Oc5nc(F)nc(-c6c7ccccc7c7sc8ccccc8n67)n5)ccc4C3CC[C@@]21C (some centres undefined),35.2 µM (inactive),> 100 µM (inactive),> 100 µM (inactive),> 100 µM (inactive),> 100 µM (inactive),> 100 µM (inactive),75.7 µM (inactive),> 100 µM (inactive),32.1 µM (inactive),> 100 µM (inactive),> 100 µM (inactive),> 100 µM (inactive),> 100,> 100 µM (inactive),> 100 µM (inactive),
CCNC(=O)O/N=C1\CCC2[C@@H]3CC=C4C[C@@H](OC(=O)NCC)CC[C@]4(C)C3CC[C@]12C (some centres undefined),,1.83 µM (inactive),2.58 µM (inactive),2.44 µM (inactive),6.71 µM (inactive),8.95 µM (inactive),2.09 µM (inactive),22.3 µM (inactive),,1.88 µM (inactive),0.387 µM (active),4.68 µM (inactive),2.15,1.21 µM (inactive),,2.65 µM (inactive)
